In patent US20240368174A1, “Antiviral Heterocyclic Compounds” (Enanta Pharmaceuticals, Inc., priority 2023, published 2024) one finds EC50 data, which are given here for 37 compounds.

pEC50: −log10 of the molar value.

This assay concerns HMPV clinical isolate A2 strain TN 94-49. In words: HMPV antiviral assay, Method 2 (LLC-MK2 cells with CP-100-356, ATP-Lite). The class given is cell-based. To be noted: human metapneumovirus, 168 h; hMPV A2 TN/94-49, LLC-MK2 cells with 4 μM CP-100-356, 7 days, ATP-Lite. The gist of the method: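 EC50 comes from a four-parameter fit of percent cell viability (ATP-Lite, normalized to virus-only and cell-only wells) after 7 days at 37 °C. Infection used HMPV A2 TN 94-49 at MOI 0.16 in LLC-MK2 cells, with 2 μM P-gp inhibitor CP-100-356 and 2 μg/mL TPCK-trypsin final; dose range 200 nM top, 2.5-fold, 10 points, duplicate.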
The compound `COc1cc(C(=O)NC[C@](O)(c2cc3c(c(-n4cc5cc(F)ccc5n4)n2)OC[C@]3(C)C(N)=O)C2CC2)cc2cn(C3CC3)nc12` [Example 719] showed a pEC50 of under 6.70.
The same measure for `COc1cc(C(=O)NC[C@](O)(c2cc3c(c(-c4cc(C5CC5)ncc4F)n2)OC[C@]3(C)C(N)=O)C2CC2)cc2cn(C3CC3)nc12` [Example 723]: over 6.70; for `COc1cc(C(=O)NC[C@](O)(c2cc3c(c(-c4c(F)cncc4Cl)n2)OC[C@]3(C)C(N)=O)C2CC2)cc2cn(C3CC3)nc12` [Example 724]: over 6.70; for `COc1cc(C(=O)NC[C@](O)(c2cc3c(c(-c4c(C)cncc4F)n2)OC[C@]3(C)C(N)=O)C2CC2)cc2cn(C3CC3)nc12` [Example 725]: over 6.70.
Compound `COc1cc(C(=O)NC[C@](O)(c2cc3c(c(-c4c(C)cncc4C)n2)OC[C@]3(C)C(N)=O)C2CC2)cc2cn(C3CC3)nc12` [Example 726] showed a negative-log EC50 (pEC50) of over 6.70.
The compound `COc1cc(C(=O)NC[C@](O)(c2cc3c(c(-c4ccnc5ccccc45)n2)OC[C@]3(C)C(N)=O)C2CC2)cc2cn(C3CC3)nc12` [Example 727] gave a negative-log EC50 (pEC50) of over 6.70.
On to `COc1cc(C(=O)NC[C@](O)(c2cc3c(c(-c4ccnc5[nH]ccc45)n2)OC[C@]3(C)C(N)=O)C2CC2)cc2cn(C3CC3)nc12` [Example 728], for which the pEC50 is under 6.70.
Turning to `COc1cc(C(=O)NC[C@](O)(c2cc3c(c(-c4c(F)cncc4F)n2)OC[C@]3(C)C(N)=O)C2CC2)cc2cn(C3CC3)nc12` [Example 729], the pEC50 was over 6.70.
For `COc1cc(C(=O)NC[C@](O)(c2cc3c(c(-c4ccnc(C(F)(F)F)c4)n2)OC[C@]3(C)C(N)=O)C2CC2)cc2cn(C(F)F)nc12` [Example 759], the negative logarithm of the EC50 (pEC50) was under 6.70.
The same measure for `COc1cc(C(=O)NC[C@](O)(c2cc3c(c(-c4ccnc(C(F)(F)F)c4)n2)OC[C@]3(C)C(N)=O)C2CC2)cc2cn(C3(F)CC3)nc12` [Example 761]: over 6.70; for `COc1cc(C(=O)NC[C@](O)(c2cc3c(c(-c4ccnc(C(F)(F)F)c4)n2)OC[C@]3(C)C(N)=O)C2CC2)cc2oc(C3CC3)nc12` [Example 763]: over 6.70.
`COc1nccc(-c2nc([C@@](O)(CNC(=O)c3cc(OC)c4nn(C5CC5)cc4c3)C3CC3)cc3c2OC[C@]3(C)C(N)=O)c1Cl` [Example 782] showed a negative-log EC50 (pEC50) of over 6.70.
In turn, `COc1cc(C(=O)NC[C@](O)(c2cc3c(c(-c4ccnc(C(F)(F)F)c4Cl)n2)OC[C@]3(C)C(N)=O)C(F)(F)F)cc2cn(C(F)F)nc12` [Example 790] showed a pEC50 of over 6.70.
Consider `COc1cc(C(=O)NC[C@](O)(c2cc3c(c(-c4ccnc(C(F)F)c4Cl)n2)OC[C@]3(C)C(N)=O)C(F)(F)F)cc2cn(C(F)F)nc12` [Example 797], for which the pEC50 is over 6.70.
The same measure for `COc1nccc(-c2nc([C@@](O)(CNC(=O)c3cc(OC)c4nn(C(F)F)cc4c3)C(F)(F)F)cc3c2OC[C@]3(C)C(N)=O)c1Cl` [Example 798]: over 6.70; for `COc1cc(C(=O)NC[C@](O)(c2cc3c(c(-c4ccnc(C(F)(F)F)c4F)n2)OC[C@]3(C)C(N)=O)C2CC2)cc2cn(C(F)F)nc12` [Example 799]: over 6.70; for `COc1nccc(-c2nc([C@@](O)(CNC(=O)c3cc(OC)c4nn(C5CC5)cc4c3)C3CC3)cc3c2OC[C@]3(C)C(N)=O)c1F` [Example 802]: over 6.70.
In turn, `COc1cc(C(=O)NC[C@](O)(c2cc3c(c(-c4ccnc(C(F)F)c4F)n2)OC[C@]3(C)C(N)=O)C2CC2)cc2cn(C3CC3)nc12` [Example 803] showed a negative-log EC50 (pEC50) of over 6.70.
Take `COc1cc(C(=O)NC[C@](O)(c2cc3c(c(-c4ccnc(OCC(C)C)c4Cl)n2)OC[C@]3(C)C(N)=O)C2CC2)cc2cn(C3CC3)nc12` [Example 804]: the negative-log EC50 (pEC50) was under 6.70.
In the case of `COc1cc(C(=O)NC[C@](O)(c2cc3c(c(-c4ccnc(N5CCOCC5)c4Cl)n2)OC[C@]3(C)C(N)=O)C2CC2)cc2cn(C3CC3)nc12` [Example 805], the negative logarithm of the EC50 (pEC50) is under 6.70.
With `COc1cc(C(=O)NC[C@](O)(c2cc3c(c(-c4ccnc(OC(C)C)c4Cl)n2)OC[C@]3(C)C(N)=O)C2CC2)cc2cn(C3CC3)nc12` [Example 806], the pEC50 was under 6.70.
In turn, `CCc1nccc(-c2nc([C@@](O)(CNC(=O)c3cc(OC)c4nn(C5CC5)cc4c3)C3CC3)cc3c2OC[C@]3(C)C(N)=O)c1Cl` [Example 807] gave a negative-log EC50 (pEC50) of over 6.70.
`COc1cc(C(=O)NC[C@](O)(c2cc3c(c(-c4cccc(C(=O)O)c4Cl)n2)OC[C@]3(C)C(N)=O)C2CC2)cc2cn(C3CC3)nc12` [Example 808]: the pEC50 is under 6.70.
Turning to `COc1cc(C(=O)NC[C@](O)(c2cc3c(c(-c4cccc(C(=O)N(C)C)c4Cl)n2)OC[C@]3(C)C(N)=O)C2CC2)cc2cn(C3CC3)nc12` [Example 809], the negative-log EC50 (pEC50) is under 6.70.
For the compound `COc1cc(C(=O)NC[C@](O)(c2cc3c(c(-c4ccnc(C(C)C)c4Cl)n2)OC[C@]3(C)C(N)=O)C2CC2)cc2cn(C3CC3)nc12` [Example 810], the negative-log EC50 (pEC50) is over 6.70.
Regarding `COc1cc(C(=O)NC[C@](O)(c2cc3c(c(-c4ccnc(N(C)C)c4Cl)n2)OC[C@]3(C)C(N)=O)C2CC2)cc2cn(C3CC3)nc12` [Example 811], the negative logarithm of the EC50 (pEC50) was over 6.70.
The same measure for `COc1cc(C(=O)NC[C@](O)(c2cc3c(c(-c4ccnc5c4OCCO5)n2)OC[C@]3(C)C(N)=O)C2CC2)cc2cn(C3CC3)nc12` [Example 812]: under 6.70; for `COc1nccc(-c2nc([C@@](O)(CNC(=O)c3cc(OC)c4nn(C5CC5)cc4c3)C3CC3)cc3c2OC[C@]3(C)C(N)=O)c1OC` [Example 813]: under 6.70.
The same measure for `COc1cc(C(=O)NC[C@](O)(c2cc3c(c(-c4ccnc(Cl)c4C)n2)OC[C@]3(C)C(N)=O)C2CC2)cc2cn(C3CC3)nc12` [Example 815]: over 6.70; for `COc1cc(C(=O)NC[C@](O)(c2cc3c(c(-c4ccnc(C)c4F)n2)OC[C@]3(C)C(N)=O)C2CC2)cc2cn(C3CC3)nc12` [Example 817]: over 6.70.
Take `COc1cc(-c2nc([C@@](O)(CNC(=O)c3cc(OC)c4nn(C5CC5)cc4c3)C(F)(F)F)cc3c2OC[C@]3(C)C(N)=O)c(F)cn1` [Example 831]: the pEC50 is under 6.70.
Consider `COc1cc(-c2nc([C@@](O)(CNC(=O)c3cc(OC)c4nn(C5CC5)cc4c3)C3CC3)cc3c2OC[C@]3(C)C(N)=O)ccn1` [Example 832], for which the pEC50 is under 6.70.
`COc1cccc2c1cnn2-c1nc([C@@](O)(CNC(=O)c2cc(OC)c3nn(C4CC4)cc3c2)C2CC2)cc2c1OC[C@]2(C)C(N)=O` [Example 833]: the negative-log EC50 (pEC50) is under 6.70.
Turning to `COc1cc(-c2nc([C@@](O)(CNC(=O)c3cc(OC)c4nn(C5CC5)cc4c3)C3CC3)cc3c2OC[C@]3(C)C(N)=O)c(Cl)cn1` [Example 834], the negative logarithm of the EC50 (pEC50) is under 6.70.
The compound `COc1cc(-c2nc([C@@](O)(CNC(=O)c3cc(OC)c4nn(C5CC5)cc4c3)C(F)(F)F)cc3c2OC[C@]3(C)C(N)=O)c(Cl)cn1` [Example 835] gave a pEC50 of under 6.70.
`COc1cc(C(=O)NC[C@](O)(c2cc3c(c(-n4ncc5c(F)cccc54)n2)OC[C@]3(C)C(N)=O)C(F)(F)F)cc2oc(C3CC3)nc12` [Example 836] gave a pEC50 of under 6.70.
Consider `COc1cc(C(=O)NC[C@](O)(c2cc3c(c(-c4ccn5nc(C)cc5c4Cl)n2)OC[C@]3(C)C(N)=O)C2CC2)cc2cn(C3CC3)nc12` [Example 837], for which the negative-log EC50 (pEC50) is under 6.70.

In general, pEC50 refers to −log10 of the EC50, conventionally taken in molar units. A low value points to a large EC50.
